# Assay results: the supplement of paper PMC10307832
# Legend:
# Assay in all cases: relative viability (nuclei count vs DMSO), 5 days (fraction); higher = more cells survive
# Adavosertib + Navitoclax = compound: C=CCn1c(=O)c2cnc(Nc3ccc(N4CCN(C)CC4)cc3)nc2n1-c1cccc(C(C)(C)O)n1 [Adavosertib] + CC1(C)CCC(c2ccc(Cl)cc2)=C(CN2CCN(c3ccc(C(=O)NS(=O)(=O)c4ccc(N[C@H](CCN5CCOCC5)CSc5ccccc5)c(S(=O)(=O)C(F)(F)F)c4)cc3)CC2)C1 [Navitoclax] (partner 0.5 µM)
# How it was run: (§1)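 Lung cancer cell lines, seeded in 1536-well plates, were treated the following day by pin tool with a single drug or with five library-drug doses (not always all listed) in √10 steps on top of a fixed anchor-drug dose. Cells were fixed and nuclei stained in one step after 5 days, and nuclei were counted. Relative viability is the nuclei count for treated wells divided by that for vehicle wells, reported as medians of duplicate plates.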
# Nelarabine + Pemetrexed = compound: COc1nc(N)nc2c1ncn2[C@@H]1O[C@H](CO)[C@@H](O)[C@@H]1O [Nelarabine] + Nc1nc2[nH]cc(CCc3ccc(C(=O)N[C@@H](CCC(=O)O)C(=O)O)cc3)c2c(=O)[nH]1 [Pemetrexed] (partner 0.2 µM)
# How it was run: as §1
# Nelarabine + Tozasertib = compound: COc1nc(N)nc2c1ncn2[C@@H]1O[C@H](CO)[C@@H](O)[C@@H]1O [Nelarabine] + Cc1cc(Nc2cc(N3CCN(C)CC3)nc(Sc3ccc(NC(=O)C4CC4)cc3)n2)n[nH]1 [Tozasertib] (partner 0.1 µM)
# How it was run: as §1
# Adavosertib + Dasatinib = compound: C=CCn1c(=O)c2cnc(Nc3ccc(N4CCN(C)CC4)cc3)nc2n1-c1cccc(C(C)(C)O)n1 [Adavosertib] + Cc1nc(Nc2ncc(C(=O)Nc3c(C)cccc3Cl)s2)cc(N2CCN(CCO)CC2)n1 [Dasatinib] (partner 0.075 µM)
# How it was run: as §1
Cell Line,relative viability (Adavosertib + Navitoclax; first compound 0.01 µM),relative viability (Adavosertib + Navitoclax; first compound 0.03162 µM),relative viability (Adavosertib + Navitoclax; first compound 0.1 µM),relative viability (Adavosertib + Navitoclax; first compound 0.3162 µM),relative viability (Nelarabine + Pemetrexed; first compound 0.01 µM),relative viability (Nelarabine + Pemetrexed; first compound 0.03162 µM),relative viability (Nelarabine + Pemetrexed; first compound 0.1 µM),relative viability (Nelarabine + Pemetrexed; first compound 0.3162 µM),relative viability (Nelarabine + Pemetrexed; first compound 1 µM),relative viability (Nelarabine + Tozasertib; first compound 0.01 µM),relative viability (Nelarabine + Tozasertib; first compound 0.03162 µM),relative viability (Nelarabine + Tozasertib; first compound 0.1 µM),relative viability (Nelarabine + Tozasertib; first compound 0.3162 µM),relative viability (Nelarabine + Tozasertib; first compound 1 µM),relative viability (Adavosertib + Dasatinib; first compound 0.01 µM),relative viability (Adavosertib + Dasatinib; first compound 0.03162 µM),relative viability (Adavosertib + Dasatinib; first compound 0.1 µM),relative viability (Adavosertib + Dasatinib; first compound 0.3162 µM)
NCI-H2347,0.811,0.804,0.954,0.791,0.423,0.425,0.427,0.447,0.397,0.659,0.443,0.523,0.565,0.225,0.378,0.304,0.267,0.258
NCI-H3122,1.07,1.02,1,1.01,0.194,0.18,–,0.204,0.195,0.547,0.403,–,0.434,0.534,0.816,0.849,0.922,0.893
HCC-15,0.699,0.712,0.801,0.821,0.233,0.242,0.218,0.212,0.217,0.48,0.268,0.377,0.412,0.39,0.577,0.569,0.574,0.643
HCC-78,0.81,0.686,0.894,0.79,0.879,0.925,–,0.953,0.886,0.492,0.415,–,0.384,0.401,0.389,0.44,0.418,0.401
A549,1.21,1.26,1.26,0.901,–,–,–,–,–,–,–,–,–,–,–,–,–,–
PC-3 [JPC-3],0.842,0.782,0.797,0.716,0.9,0.866,1.36,1.17,0.751,1.02,0.747,0.934,0.891,0.899,0.994,0.937,0.933,1.05
NCI-H1395,1.15,1.17,1.25,0.986,0.818,0.755,1.21,0.773,0.707,0.839,0.67,0.814,0.729,0.657,0.427,0.407,0.416,0.439
SK-MES-1,1.17,1.25,1.31,1.11,1.17,0.951,0.957,1.03,1.07,1,0.89,0.944,0.924,0.937,0.334,0.392,0.27,0.193
CAL-12T,1.03,1.33,1.19,1.02,1.55,1.19,1.42,1.2,1.22,0.358,0.309,0.316,0.303,0.363,0.501,0.416,0.438,0.222
LCLC-97TM1,–,0.372,0.473,0.257,–,–,0.153,0.2,0.169,0.259,0.148,0.192,0.2,0.234,0.881,0.675,0.886,0.801
HOP-62,1.12,1.16,1.4,1.35,0.412,0.347,0.307,0.318,0.33,0.434,0.305,0.42,0.364,0.402,0.693,0.678,0.644,0.661
NCI-H1703,1.27,0.877,1.11,0.157,–,–,–,–,–,–,–,–,–,–,–,–,–,–
NCI-H596,0.897,1.01,1.06,0.742,0.504,0.517,0.574,0.492,0.491,1.07,0.835,0.879,0.862,0.827,0.53,0.656,0.66,0.541
NCI-H2126,0.882,0.871,0.871,0.894,0.879,0.757,0.692,0.765,0.807,0.968,0.864,0.779,0.809,0.824,0.602,0.619,0.564,0.561
NCI-H2087,1.09,1.14,1.09,0.937,0.782,0.67,0.723,0.7,0.717,0.303,0.24,0.22,0.19,0.245,0.901,0.786,0.893,0.845
NCI-H1355,0.996,0.848,0.987,0.852,1.12,1.05,1.02,1.15,1.08,0.521,0.483,0.478,0.539,0.577,0.673,0.643,0.696,0.569
EBC-1,0.416,0.413,0.448,0.205,–,–,–,–,–,–,–,–,–,–,–,–,–,–
ABC-1,–,–,–,–,–,–,–,–,–,0.233,0.149,0.162,0.146,0.175,0.551,0.594,0.677,0.563
NCI-H358,–,–,–,–,0.181,0.227,0.161,0.172,0.328,0.0868,0.0783,0.096,0.105,0.0898,0.159,0.144,0.149,0.139
NCI-H520,1.12,1.1,1.09,0.791,0.768,0.584,0.687,0.842,0.786,0.574,0.315,0.429,0.457,0.429,0.194,0.181,0.183,0.217
NCI-H2405,0.869,1.01,0.98,0.996,0.939,1.11,1.09,1.16,1.01,0.805,0.682,0.663,0.73,0.67,0.198,0.217,0.183,0.206
NCI-H2023,1.03,0.959,0.912,0.6,0.353,0.365,0.268,0.244,0.228,0.416,0.41,0.39,0.33,0.422,0.584,0.583,0.471,0.226

Cell Line,relative viability (Adavosertib + Navitoclax; first compound 0.01 µM),relative viability (Adavosertib + Navitoclax; first compound 0.03162 µM),relative viability (Adavosertib + Navitoclax; first compound 0.1 µM),relative viability (Adavosertib + Navitoclax; first compound 0.3162 µM),relative viability (Nelarabine + Pemetrexed; first compound 0.01 µM),relative viability (Nelarabine + Pemetrexed; first compound 0.03162 µM),relative viability (Nelarabine + Pemetrexed; first compound 0.1 µM),relative viability (Nelarabine + Pemetrexed; first compound 0.3162 µM),relative viability (Nelarabine + Pemetrexed; first compound 1 µM),relative viability (Nelarabine + Tozasertib; first compound 0.01 µM),relative viability (Nelarabine + Tozasertib; first compound 0.03162 µM),relative viability (Nelarabine + Tozasertib; first compound 0.1 µM),relative viability (Nelarabine + Tozasertib; first compound 0.3162 µM),relative viability (Nelarabine + Tozasertib; first compound 1 µM),relative viability (Adavosertib + Dasatinib; first compound 0.01 µM),relative viability (Adavosertib + Dasatinib; first compound 0.03162 µM),relative viability (Adavosertib + Dasatinib; first compound 0.1 µM),relative viability (Adavosertib + Dasatinib; first compound 0.3162 µM)
NCI-H1975,1.17,1.25,1.01,0.483,0.376,0.278,0.312,0.305,0.303,0.69,0.689,1.05,0.911,0.926,0.383,0.3,0.268,0.232
EPLC-272H,1.09,0.987,0.983,0.861,0.3,0.288,0.308,0.289,0.378,0.219,0.2,0.287,0.295,0.253,0.312,0.339,0.363,0.205
ChaGo-K-1,0.84,0.877,0.934,0.729,0.242,0.249,0.261,0.258,0.252,0.237,0.205,0.193,0.232,0.231,0.641,0.602,0.56,0.535
NCI-H2228,0.691,1.41,0.885,0.305,0.342,0.346,0.269,0.374,0.4,0.226,0.163,–,0.245,0.214,0.536,0.492,0.475,0.265
NCI-H650,–,–,–,–,0.986,0.814,0.913,0.971,1.02,0.787,0.616,0.694,0.768,0.735,0.37,0.494,0.5,0.465
NCI-H1648,–,–,–,–,–,0.805,–,0.885,0.75,0.456,0.405,0.43,0.601,0.383,–,–,–,–
NCI-H1651,0.993,1.13,1.17,0.748,0.406,0.548,0.63,0.643,0.564,0.944,0.767,0.689,0.674,0.685,0.479,0.409,0.396,0.282
NCI-H522,–,–,–,–,1.1,0.923,1.03,0.999,1.11,0.529,0.605,0.456,0.615,0.627,0.83,0.749,0.944,0.739
NCI-H1993,1.02,0.977,1.01,0.934,0.632,0.477,0.598,0.64,0.67,0.662,0.553,0.623,0.586,0.571,0.63,0.503,0.719,0.618
HCC-827,1.06,1.07,1.18,0.993,0.231,0.235,0.27,0.287,0.231,0.499,0.423,0.446,0.366,0.476,0.282,0.284,0.264,0.282
NCI-H1299,1.08,1.03,1.06,1.06,–,–,–,–,–,–,–,–,–,–,–,–,–,–
HCC-44,1.02,1.01,1.01,1.06,0.642,0.662,0.646,0.69,0.633,1.27,1.25,1,1.11,0.867,–,–,–,–
SW 900,–,–,–,–,0.53,0.538,0.482,0.526,0.506,0.617,0.476,0.635,0.611,0.532,–,0.607,0.645,0.36
NCI-H1563,–,–,–,–,0.765,0.811,0.77,0.812,0.787,–,–,–,–,–,0.462,0.432,0.437,0.466
NCI-H2342,–,–,–,–,0.901,0.659,0.681,0.817,0.801,0.532,0.513,0.446,0.478,0.462,0.3,0.345,0.338,0.289
LCLC-103H,–,–,–,–,0.467,0.447,0.464,0.446,0.478,0.674,0.358,0.373,0.479,0.47,0.422,0.44,0.435,0.356
IA-LM,0.821,0.742,0.976,0.668,–,–,–,–,–,–,–,–,–,–,–,–,–,–
NCI-H727,0.468,0.566,0.678,0.372,–,–,–,–,–,0.789,0.816,0.617,0.598,0.694,0.316,0.478,0.338,0.301
NCI-H661,–,–,–,–,0.963,1.07,0.865,0.899,0.899,0.343,0.334,0.333,0.344,0.364,0.864,0.846,0.75,0.347
NCI-H1623,–,–,–,–,–,–,–,–,–,0.46,0.341,0.601,0.45,0.406,0.451,0.553,0.507,0.575
Calu-6,0.819,0.898,0.88,0.239,–,–,–,–,–,–,–,–,–,–,–,–,–,–
NCI-H1792,0.529,0.659,0.655,0.643,1.09,0.658,1.58,0.937,0.824,–,–,–,–,–,–,0.753,0.942,0.865
